Data from patent US8309589B2, “Fluorine-containing organosulfur compound and pesticidal composition comprising the same” (Sumitomo Chemical Company, Limited, priority 2007, dated 2012).

Tested on: Blattalla germanica
Assay: Test Example 4: filter paper with sucrose bait, Blattalla germanica
Assay type: in vivo
Conditions: 500 ppm, 0.7 ml on filter paper; 2 male imagoes; after 6 days
Protocol: A formulation of any one of the present compounds (2), (3) and (4) obtained according to Formulation Example 10 was diluted with water so that the active ingredient concentration was 500 ppm to obtain a test solution.
A filter paper having a diameter of 5.5 cm was spread on the bottom of a polyethylene cup having a diameter of 5.5 cm and 0.7 ml of the test solution was added dropwise onto the filter paper. As a bait 30 mg of sucrose was uniformly placed on the filter paper. Into the polyethylene cup, 2 male imagoes of Blattalla germanica were released and the cup was sealed with a lid. After 6 days, the number of surviving Blattalla germanica was examined and the death rate of the pest was calculated.

| Structure (SMILES) | pest death rate |
| --- | --- |
| CC(C)(C)c1cc(CSCCC(F)(F)F)no1 [present compound (2), 5-tert-butyl-3-[(3,3,3-trifluoropropylsulfanyl)methyl]isoxazole] | 100% |
| FC(F)(F)CCSCn1cnc(C(F)(F)F)c1 [present compound (3), 4-trifluoromethyl-1-[(3,3,3-trifluoropropylsulfanyl)methyl]-1H-imidazole] | 100% |
| CC(C)(C)n1cc(CSCCC(F)(F)F)cn1 [present compound (4), 1-tert-butyl-4-[(3,3,3-trifluoropropylsulfanyl)methyl]-1H-pyrazole] | 100% |
